Patent publication US20080300554A1, “LUBRICANT FOR MEDICAL DEVICES” (APPLIED MEDICAL RESOURCES CORPORATION, priority 2007, published 2008)

Experiment: Lubricity durability after incubation in PBS at 70° C.
Type: physicochemical
Conditions: PBS at 70° C. for 20 hours
Description: Lacking a direct assay for PEI, an indirect measure of cross-linking effectiveness was selected. This method involved measuring the stability of the cross-linked coating when incubated in PBS at 70° C. for 20 hours. […] It was assumed that this durability was only possible if cross-linking had immobilized the PEI into a cross-linked matrix. PVP which cannot participate in this cross-linking was free to diffuse through the matrix to maintain lubricity. This assumption was further validated when the covalently cross-linked coating tested as non toxic.
Primary amines react readily with epoxides to form a secondary amine alcohol. Therefore, a multifunctional epoxide has the capability of cross-linking PEI into an immobile matrix EGDE (Sigma Chemical, ethylene glycol diglycidyl ether, E27203 50% technical grade) is a diepoxide with this capability. EGDE is readily soluble in water and isopropanol and can be applied to a coated sheath by a simple dip into an EGDE solution. Effectiveness of EGDE as a cross-linker of PEI was evaluated at 0.1% and 0.5% in aqueous and isopropanol solutions. Evidence of cross-linking was determined by the durability of lubricity after incubation in phosphate buffered saline (PBS) for 20+ hours at 70° C.
This test consisted of incubation of 6 inch segments of the coated sheaths in phosphate buffered saline (PBS) in 18×150 mm test tubes at 70° C. for 20-24 hours. […]

polyethyleneglycol diglycidyl ether
Lubricity after incubation in PBS (lubricity durability): showed lubricity durability

O=CCCCC=O [Glutaraldehyde]
Lubricity after incubation in PBS (lubricity durability): showed lubricity durability
